Assay results as given in PMC7408179 (Pharmaceutics, 2020).
Read-outs that look alike come from different tables or passages of the source. Marks after values point to notes of the source that are not given here. One block for each molecule: values may come before it.

How the values were obtained:
[1] = design: method as in PMID 32461076; details: daily dose of 40 mg esomeprazole for three days; cited from earlier work
[2] = Gastric fluid volume via MRI, control vs PPI condition; format: in vivo, human; details: for relative decrease in total gastric fluid volume (AUVC): first 180 min after Norvir tablet with 240 mL water, median, n = 5
Experimental: Each trial day, the participant came to the radiology department at the University Hospitals Leuven after an overnight fast (at least 12 h). Water was allowed until the night before the trial except for the volume needed to swallow the PPI tablet. For the PPI condition, participants were pre-treated with a once-daily dose of Nexium (just before breakfast) starting two days prior to the trial day. On the morning of the trial, the final Nexium tablet was taken 2 h prior to the arrival time at the hospital, with as little water as possible to swallow the tablet. […] A venous catheter was placed in the subject’s arm and a blank blood sample (5 mL) was collected in heparinized tubes (BD Vacutainer systems, Plymouth, UK). […] In addition, subjects were placed in a Philips 1.5 T MRI System (Philips, Best, The Netherlands) to assess the gastric and duodenal fluid volume, once before administration of the study medication and afterwards at predetermined time points, i.e., 20, 40, 60, 90, 120, 150 and 180 min.
Upon entering the MRI system, a rectangular dStream FlexCoverage Anterior coil (Ingenia 1.5 tesla, Philips, Best, The Netherlands) was placed on the torso of the subjects. A scouting sequence was used in the coronal and transversal plane to allow correct sequence positioning. […] Images were taken during exhalation breath hold.
Images were analysed using Horos™ (Version 3.3.6, Horos project), a free open source medical images viewer. Gastric and duodenal fluid volumes reported in this study were acquired with sequence 1. […] This made the sequence unsuitable for fluid determination as the duodenum passes these blood vessels which would interfere with the outlining of the fluid present in the duodenum.
As free water lights up in a T2 weighted image, a trained operator semi-automatically traced all the bright spots in each slice for the stomach and duodenum, according to a published procedure [21]. To differentiate between free water and other contents in the respective organs, a cut-off value (lower threshold) of 30% of the brightest voxel in either the stomach or the duodenum was applied. This cut-off value must be regarded as a rule of thumb and manual correction was made to account for bright organs like the gall bladder and obvious acquisition errors (e.g., illogical dark spots in the middle of a fluid filled stomach). Subsequently, a 3D image of the traced fluid was rendered and the fluid volume was calculated by adding up the fluid volumes of each slide (multiplying the surface area of the traced region of interest with the slice thickness).

[3] = Duodenal fluid volume via MRI, control vs PPI condition; format: in vivo, human; details: for relative decrease in duodenal AUVC: first 180 min after Norvir tablet with 240 mL water, n = 5
Experimental: All volunteers provided written informed consent before participating in the trial. Each trial day, the participant came to the radiology department at the University Hospitals Leuven after an overnight fast (at least 12 h). Water was allowed until the night before the trial except for the volume needed to swallow the PPI tablet. For the PPI condition, participants were pre-treated with a once-daily dose of Nexium (just before breakfast) starting two days prior to the trial day. On the morning of the trial, the final Nexium tablet was taken 2 h prior to the arrival time at the hospital, with as little water as possible to swallow the tablet. […] A venous catheter was placed in the subject’s arm and a blank blood sample (5 mL) was collected in heparinized tubes (BD Vacutainer systems, Plymouth, UK). […] A scouting sequence was used in the coronal and transversal plane to allow correct sequence positioning. At each time point, three standardized sequences were used to acquire images; sequence parameters are depicted in Table 1. Images were taken during exhalation breath hold. Images were analysed using Horos™ (Version 3.3.6, Horos project), a free open source medical images viewer. […] This made the sequence unsuitable for fluid determination as the duodenum passes these blood vessels which would interfere with the outlining of the fluid present in the duodenum. Sequence 2 was therefore used as a localizer for the duodenum (i.e., determining the location of the duodenojejunal flexure (Figure 1). As free water lights up in a T2 weighted image, a trained operator semi-automatically traced all the bright spots in each slice for the stomach and duodenum, according to a published procedure. […] This cut-off value must be regarded as a rule of thumb and manual correction was made to account for bright organs like the gall bladder and obvious acquisition errors (e.g., illogical dark spots in the middle of a fluid filled stomach).

[4] = cited from earlier work
[5] = design: method as in PMID 18991471; details: compared to esomeprazole, pantoprazole and rabeparzole; cited from earlier work
[6] = Ritonavir plasma concentrations after oral intake of a Norvir tablet, control vs PPI condition (LC-MS/MS); format: in vivo, human; details: for AUC0-480min / Tmax: one Norvir tablet oral, fasted, median (range), n = 4
Experimental: All volunteers provided written informed consent before participating in the trial. Each trial day, the participant came to the radiology department at the University Hospitals Leuven after an overnight fast (at least 12 h). Water was allowed until the night before the trial except for the volume needed to swallow the PPI tablet. For the PPI condition, participants were pre-treated with a once-daily dose of Nexium (just before breakfast) starting two days prior to the trial day. On the morning of the trial, the final Nexium tablet was taken 2 h prior to the arrival time at the hospital, with as little water as possible to swallow the tablet. A daily dose of 40 mg esomeprazole for three days has shown to elevate and sustain the gastric and duodenal pH to values around 7.1 and 7.5, respectively, indicative of the acid-inhibitory effect. A venous catheter was placed in the subject’s arm and a blank blood sample (5 mL) was collected in heparinized tubes (BD Vacutainer systems, Plymouth, UK). […] In addition, subjects were placed in a Philips 1.5 T MRI System (Philips, Best, The Netherlands) to assess the gastric and duodenal fluid volume, once before administration of the study medication and afterwards at predetermined time points, i.e., 20, 40, 60, 90, 120, 150 and 180 min.
Blood samples were stored on ice during the remainder of the study day, before centrifugation at 2880× g, for 10 min at 4 °C (Centrifuge 5804R, Eppendorf, Hamburg, Germany). Plasma was collected and stored at −20 °C pending analysis. For analysis, a liquid-liquid extraction was performed in which 50 µL of plasma was added to 450 µL HBSS and vortexed for a few seconds. Lopinavir was used as internal standard: 100 µL of a 200 nM stock solution in 25% v/v DMSO-water was added to the mixture. Before extraction, the pH was adjusted by adding 500 µL of 40 mM borax buffer (pH = 9), followed by 5 mL of the extraction medium hexane—ethyl acetate (50:50, v/v) and shaken for 1 min. The mixture was centrifugated at 2880× g, for 5 min at 4 °C and the organic layer was transferred to a new test tube and evaporated to dryness under a gentle airflow. The residue was redissolved in 1 mL of methanol and vortexed for 30 s before another evaporation cycle. The resulting residue was reconstituted in 200 µL methanol—water (50:50, v/v) awaiting analysis.
For the analysis, a Waters ACQUITY UHPLC H-Class system consisting of a quaternary pump was used combined with a Waters Xevo TQ-S micro mass spectrometer (Waters, Milford, MA, USA). Separation took place on a Kinetex® column (2.6 µm XB-C18 100 A, 50 × 2.1 mm, Phenomenex, Utrecht, the Netherlands) using isocratic elution with methanol—0.1% formic acid (65:35, v/v) followed by a wash gradient and re-equilibration (Table 2). Column temperature was set at 35 °C and samples were kept in the autosampler at 15 °C. […] Peaks were detected with MS/MS, using electrospray ionization (ESI) as ion source. […] Fragmentation was induced by collision with argon. The system was operated in multi-reaction monitoring (MRM) mode with the mass transitions according to Table 3.

[7] = cited from earlier work; remark: listed apart in the source
[8] = design: method as in PMID 32461076; details: median; esomeprazole pre-treatment, Norvir tablet; cited from earlier work
[9] = PPI vs control condition, volunteer HV02
[10] = PPI vs control condition, median, present study

Structure (SMILES): COc1ccc2nc([S@@+]([O-])Cc3ncc(C)c(OC)c3C)[nH]c2c1 [esomeprazole]
- duodenal pH [1]: ~7.5
- gastric pH [1]: around 7.1
- relative decrease in gastric residual volume (GRV) ([2]; PPI vs control condition, fasted, prior to ritonavir intake, five volunteers): 41%
- relative decrease in total gastric fluid volume (AUVC) ([2]; PPI vs control condition): 44%
- relative decrease in total gastric fluid volume (AUVC) ([2]; PPI vs control condition, listed as PPI): 43.9%
- gastric residual volume (GRV) ([2]; following pre-treatment with esomeprazole 40 mg for three days, fasted state, mean ± SD): 20 ± 15 mL
- duodenal fluid volume ([3]; PPI condition, after Norvir tablet with 240 mL water, median): 8.6 mL
- relative decrease in duodenal AUVC ([3]; PPI vs control condition, median): 33%
- relative decrease in duodenal AUVC ([3]; PPI vs control condition, median, listed as PPI): 33.3%
- drop in duodenal fluid AUVC [3, 9]: 37%
- decrease in duodenal fluid volume ([3]; after PPI treatment, average over all volunteers): 32%

Structure (SMILES): COc1ccc2[nH]c([S+]([O-])Cc3ncc(C)c(OC)c3C)nc2c1 (stereo not drawn) [omeprazole]
- effect on plasma Cmax or AUC of ritonavir [4]: did not report an effect
- effect on the gastric fluid volume compared to other PPIs [5]: less pronounced effect on the gastric fluid volume

- PPI-induced decrease in Cmax [6, 10]: 39.0%
- delay in tmax [6, 10]: 10%
- drop in plasma AUC [6, 9]: 65%
- Tmax ([6]; both sexes, human, plasma, po, 40 mg, PPI condition (esomeprazole 40 mg once daily for three days), read-out: tmax (converted)): 3.75 h
- Cmax ([6]; both sexes, human, plasma, po, 100 mg): 1130 nM
- Tmax ([6]; both sexes, human, plasma, po, 100 mg, control condition, read-out: tmax (converted)): 3.22 h
- Tmax ([6]; control condition): 192.5 (175–240) min
Structure (SMILES): CC(C)c1nc(CN(C)C(=O)N[C@H](C(=O)N[C@@H](Cc2ccccc2)C[C@H](O)[C@H](Cc2ccccc2)NC(=O)OCc2cncs2)C(C)C)cs1 [ritonavir]
- AUC0-480min ([6]; PPI condition (esomeprazole 40 mg once daily for three days)): 2.5 · 10^5 (1.2 · 10^5–3.2 · 10^5) nmol·min/L
- AUC0-480min ([6]; control condition): 3.8 · 10^5 (2.6 · 10^5–5.9 · 10^5) nmol·min/L
- Log P [7]: 4.3
- pKa ([7]; weak base): 2.6
- PPI-induced decrease in AUC0–480min [8]: 39.5%
- PPI-induced decrease in Cmax [8]: 49.6%
- delay in tmax [8]: 50%
